# According to patent US20210137941A1 (ZARODEX THERAPEUTICS LIMITED, priority 2018, published 2021):
# Experiments:
# [1] = no clear dose-dependent relationship; not significant beyond 30 days; cited from earlier work
# [2] = tested on: bone marrow B cell subsets; assay: Wild type mouse study: bone marrow B cell immunophenotyping by flow cytometry; assay type: in vivo, C57BL/6 mice; settings: 1 mg/kg IP, 21 days
# [3] = tested on: splenic B cell and T cell populations; assay: Wild type mouse study: spleen immunophenotyping by flow cytometry; assay type: in vivo, C57BL/6 mice
# [4] = tested on: circulating immunoglobulins; assay: Wild type mouse study: circulating immunoglobulin profile by ELISA; assay type: in vivo, C57BL/6 mice; settings: clozapine 5 and 10 mg/kg, haloperidol 1 mg/kg, IP 21 days; FIG. 24
# IgE = settings: cited from earlier work
# Sequence of IgE (P01854 1-425 limits assumed): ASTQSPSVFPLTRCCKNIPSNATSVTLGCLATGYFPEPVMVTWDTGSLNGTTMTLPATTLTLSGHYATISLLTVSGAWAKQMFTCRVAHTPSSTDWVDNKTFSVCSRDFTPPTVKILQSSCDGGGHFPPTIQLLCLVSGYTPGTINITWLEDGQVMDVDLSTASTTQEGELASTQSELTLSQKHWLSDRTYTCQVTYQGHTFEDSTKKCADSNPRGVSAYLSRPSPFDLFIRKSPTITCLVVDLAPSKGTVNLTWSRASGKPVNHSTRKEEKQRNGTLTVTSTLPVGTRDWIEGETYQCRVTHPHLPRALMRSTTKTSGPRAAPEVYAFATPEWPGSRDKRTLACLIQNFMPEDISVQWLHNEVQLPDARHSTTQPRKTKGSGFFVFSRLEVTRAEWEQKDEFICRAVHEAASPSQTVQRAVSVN
# CD20 = molecular target: T1, CD20 (Homo sapiens, UniProt P11836); settings: cited from earlier work
# T1 construct: host or cells: patients' own B cells
# T1 sequence (P11836 1-297): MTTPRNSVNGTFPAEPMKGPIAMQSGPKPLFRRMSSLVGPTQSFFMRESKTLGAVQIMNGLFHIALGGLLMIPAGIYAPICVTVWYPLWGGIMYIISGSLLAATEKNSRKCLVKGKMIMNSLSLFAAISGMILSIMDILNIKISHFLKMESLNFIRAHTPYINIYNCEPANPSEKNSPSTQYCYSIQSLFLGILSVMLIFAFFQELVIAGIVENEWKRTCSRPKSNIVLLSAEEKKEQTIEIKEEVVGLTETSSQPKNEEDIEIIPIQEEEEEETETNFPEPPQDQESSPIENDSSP
compound,measurement,setting,value
OCCOCCN1CCN(C2=Nc3ccccc3Sc3ccccc32)CC1 [quetiapine],risk of pneumonia requiring hospitalization,[1],modestly increased risk
Cc1cc2c(s1)Nc1ccccc1N=C2N1CCN(C)CC1 [olanzapine],risk of pneumonia requiring hospitalization,[1],modestly increased risk
O=C(CCCN1CCC(O)(c2ccc(Cl)cc2)CC1)c1ccc(F)cc1 [haloperidol],"early developing B cell subsets in bone marrow (overall B, pre-pro B, pro-B)",[2]; FIG. 18,no significant effect
same,effect on long-lived plasma cells in the bone marrow,[2]; FIG. 20,no effect
same,activated T cells (B220+TCR-beta+) in spleen vs control,"[3]; clozapine 2.5-10 mg/kg, haloperidol 1 mg/kg, IP 21 days, FIG. 21",modestly apparent
same,impact on B cell subpopulations,"[3]; comparator, 1 mg/kg IP, 21 days",not observed
same,circulating IgA levels compared to control,[4],not observed
Cc1nc2n(c(=O)c1CCN1CCC(c3noc4cc(F)ccc34)CC1)CCCC2 [risperidone],risk of pneumonia requiring hospitalization,[1],modestly increased risk
omalizumab: humanised monoclonal anti-IgE antibody,treatment of refractory chronic spontaneous urticaria,"IgE; 2 phase II and 4 phase III trials (Chang et al., 2015)",efficacious and safe
same,clinical efficacy in allergic rhinitis,"IgE; Holgate et al., 2005, Tsabouri et al., 2014",clinically effective
same,effect in refractory/relapsing Churg-Strauss syndrome,"IgE; Jachiet et al., 2016",corticosteroid-sparing effect
same,efficacy in atopic individuals with coexisting eye disease,"IgE; Kopp et al., 2009",has shown efficacy
same,burden of asthma symptoms,"IgE; inner city children and young adults (Busse et al., 2011)",significant reduction
same,clinical outcome in eosinophilic oesophagitis,"IgE; pilot study (Loizou et al., 2015)",clinical improvement in a proportion of patients
rituximab: anti-CD-20 antibody used for B cell depletion,clinical outcome in Churg-Strauss syndrome,"CD20; Mohammad et al., 2016",clinically effective in inducing remission or partial responses
same,clinical outcome in atopic dermatitis,"CD20; Simon et al., 2008",substantial clinical improvement
same,"reduction of B cells in the skin, atopic dermatitis","CD20; Simon et al., 2008",~50%
same,effect on IgE levels,"CD20; van Vollenhoven et al., 2013",modest
